Results published in publication PMC5913400, “Yoda1 analogue (Dooku1) which antagonizes Yoda1‐evoked activation of Piezo1 and aortic relaxation” (British Journal of Pharmacology, 2018).
Where two headings read alike, the source gives them in different places.

How the values were obtained:
Format in all cases: cell-based
Piezo1 [1] = target: T1, Piezo1 (Homo sapiens, UniProt Q92508); assay: intracellular Ca2+ (fura-2) in Piezo1 T-REx HEK […] cells; no response in cells without Piezo1; EC50 […] in HUVECs
Piezo1 [2] = target: T1, Piezo1; assay: Ca2+ entry at […] in Piezo1 T-REx HEK […] cells ([…] of Yoda1 response); also reduces Yoda1 response; settings: TREx-HEK; read-out: % of 10 μM Yoda1 response
Piezo1 [3] = target: T1, Piezo1; assay: as above; settings: TREx-HEK; read-out: % of 10 μM Yoda1 response; remark: listed apart in the source
Piezo1 [4] = target: T1, Piezo1; assay: partial agonist; […] pretreatment reduces […] Yoda1-evoked Ca2+ entry in Piezo1 T-REx HEK […] cells; settings: TREx-HEK; read-out: % inhibition of Yoda1 response at 10 μM
Piezo1 [5] = target: T1, Piezo1; assay: inhibition of […] Yoda1-evoked Ca2+ entry in Piezo1 T-REx HEK […] cells; reversible; also Tl+ flux and HUVECs (IC50 […])

T1 sequence (Q92508 whole entry): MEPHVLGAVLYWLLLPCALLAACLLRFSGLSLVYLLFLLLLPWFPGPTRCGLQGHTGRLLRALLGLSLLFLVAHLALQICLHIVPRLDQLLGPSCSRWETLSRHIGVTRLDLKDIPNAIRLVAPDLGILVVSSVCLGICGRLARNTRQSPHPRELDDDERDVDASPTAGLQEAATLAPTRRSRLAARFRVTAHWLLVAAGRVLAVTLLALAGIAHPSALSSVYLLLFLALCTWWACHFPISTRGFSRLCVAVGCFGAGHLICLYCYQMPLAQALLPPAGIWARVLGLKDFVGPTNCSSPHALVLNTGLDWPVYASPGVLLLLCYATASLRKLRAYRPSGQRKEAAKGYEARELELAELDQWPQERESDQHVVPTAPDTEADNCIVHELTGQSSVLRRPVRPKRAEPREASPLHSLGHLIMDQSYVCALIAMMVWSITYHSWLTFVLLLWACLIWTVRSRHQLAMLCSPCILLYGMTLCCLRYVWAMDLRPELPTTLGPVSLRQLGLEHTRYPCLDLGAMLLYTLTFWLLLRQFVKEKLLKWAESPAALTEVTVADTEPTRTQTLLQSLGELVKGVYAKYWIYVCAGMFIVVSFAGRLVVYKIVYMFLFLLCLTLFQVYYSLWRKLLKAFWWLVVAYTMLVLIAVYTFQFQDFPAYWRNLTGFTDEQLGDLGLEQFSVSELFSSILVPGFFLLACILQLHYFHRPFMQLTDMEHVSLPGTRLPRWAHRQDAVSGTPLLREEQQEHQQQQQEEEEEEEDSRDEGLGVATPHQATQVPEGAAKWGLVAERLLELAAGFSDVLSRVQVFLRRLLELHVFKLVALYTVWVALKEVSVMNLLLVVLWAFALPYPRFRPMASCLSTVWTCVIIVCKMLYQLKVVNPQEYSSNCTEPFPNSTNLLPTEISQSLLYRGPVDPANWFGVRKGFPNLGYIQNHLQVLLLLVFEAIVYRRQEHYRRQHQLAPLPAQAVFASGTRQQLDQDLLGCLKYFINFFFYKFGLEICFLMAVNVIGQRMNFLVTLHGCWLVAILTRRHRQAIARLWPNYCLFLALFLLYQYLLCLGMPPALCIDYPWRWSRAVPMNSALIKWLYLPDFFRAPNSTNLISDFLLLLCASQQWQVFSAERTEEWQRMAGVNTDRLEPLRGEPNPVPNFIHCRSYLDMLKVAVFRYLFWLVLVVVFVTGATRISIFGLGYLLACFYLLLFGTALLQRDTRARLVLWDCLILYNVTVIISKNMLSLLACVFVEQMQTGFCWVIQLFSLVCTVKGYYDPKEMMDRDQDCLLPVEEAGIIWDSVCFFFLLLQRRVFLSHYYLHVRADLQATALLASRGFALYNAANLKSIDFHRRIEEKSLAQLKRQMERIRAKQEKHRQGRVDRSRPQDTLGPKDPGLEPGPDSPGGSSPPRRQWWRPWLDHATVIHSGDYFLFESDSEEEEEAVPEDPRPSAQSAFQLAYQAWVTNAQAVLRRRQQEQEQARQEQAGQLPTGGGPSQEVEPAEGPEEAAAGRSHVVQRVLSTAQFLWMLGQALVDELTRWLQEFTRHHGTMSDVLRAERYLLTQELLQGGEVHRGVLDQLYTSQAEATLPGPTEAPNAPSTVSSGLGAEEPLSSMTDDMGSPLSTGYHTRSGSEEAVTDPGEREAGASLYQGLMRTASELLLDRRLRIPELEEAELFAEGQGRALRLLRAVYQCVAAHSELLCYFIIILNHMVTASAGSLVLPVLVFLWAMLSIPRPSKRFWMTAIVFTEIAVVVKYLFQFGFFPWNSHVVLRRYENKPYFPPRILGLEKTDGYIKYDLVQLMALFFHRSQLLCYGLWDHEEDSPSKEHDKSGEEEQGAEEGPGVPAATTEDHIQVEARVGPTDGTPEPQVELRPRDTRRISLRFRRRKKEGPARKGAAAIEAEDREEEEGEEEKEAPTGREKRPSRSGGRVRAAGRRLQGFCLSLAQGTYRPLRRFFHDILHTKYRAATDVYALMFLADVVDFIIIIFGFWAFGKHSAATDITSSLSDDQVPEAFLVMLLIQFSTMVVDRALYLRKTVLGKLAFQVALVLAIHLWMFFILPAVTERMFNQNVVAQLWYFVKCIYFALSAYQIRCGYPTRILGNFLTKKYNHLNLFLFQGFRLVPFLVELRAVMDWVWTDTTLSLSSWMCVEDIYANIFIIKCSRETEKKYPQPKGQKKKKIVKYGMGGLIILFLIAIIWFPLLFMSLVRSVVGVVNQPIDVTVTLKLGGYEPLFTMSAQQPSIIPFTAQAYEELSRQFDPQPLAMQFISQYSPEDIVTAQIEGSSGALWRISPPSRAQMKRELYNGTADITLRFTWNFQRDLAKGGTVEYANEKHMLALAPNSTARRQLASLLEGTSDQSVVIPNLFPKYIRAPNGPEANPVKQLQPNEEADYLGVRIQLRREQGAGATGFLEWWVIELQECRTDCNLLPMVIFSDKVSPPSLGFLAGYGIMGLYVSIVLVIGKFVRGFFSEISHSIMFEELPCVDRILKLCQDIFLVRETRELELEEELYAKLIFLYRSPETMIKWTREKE

Q: Which EC50 (Piezo1 [1]) does the source give for `Clc1cccc(Cl)c1CSc1nnc(-c2cnccn2)s1` [Yoda1] here?
A: Its EC50 is 2.51 µM.

Q: For `Clc1cccc(Cl)c1CSc1nnc(-c2cnccn2)o1` [compound 11], which Emax (Piezo1 [2]) is on record?
A: Its Emax is about 70%.

Q: With `Clc1cccc(Cl)c1CSc1nnc(-c2cccnc2)s1` [7a] as the compound, how does the Emax (Piezo1 [3]) read?
A: Its Emax is 50%.

Q: For `Clc1cccc(Cl)c1CSc1nnc(-c2ccccn2)o1` [2j], which inhibition at 10 µM (Piezo1 [4]) is on record?
A: Its inhibition at 10 µM is about 75%.

Q: How did the IC50 (Piezo1 [5]) turn out when `Clc1cccc(Cl)c1CSc1nnc(-c2ccc[nH]2)o1` [2k, Dooku1] was run?
A: Its IC50 is 1.3 µM.
